Measured values: ChEMBL document CHEMBL5385895, “Design, synthesis, biological evaluation of urea substituted 1,2,5-oxadiazole-3-carboximidamides as novel indoleamine 2,3-dioxygenase-1 (IDO1) inhibitors” (Eur J Med Chem, 2023)
Active and inactive are the calls of the source. The rule behind the calls is not given here.

How the values were obtained:
[1] = Toxicity in C57BL/6 mouse implanted with mouse LLC cells assessed as change in body weight at 100 to 200 mg/kg, po bid treated for 21 days; type: organism-based, Lewis lung carcinoma; conditions: in vivo, 504 h, dose 100-200 mg/kg, time 21 day
[2] = biological target: T1, Indoleamine 2,3-dioxygenase 1 (Homo sapiens, UniProt P14902); assay: Inhibition of human recombinant IDO1 assessed as reduction in N-formylkynurenine formation using L-tryptophan as substrate preincubated for 30 mins followed by substrate addition and measured after 20 mins by SpectraMax microplate reader analysis
T1 sequence (P14902 whole entry): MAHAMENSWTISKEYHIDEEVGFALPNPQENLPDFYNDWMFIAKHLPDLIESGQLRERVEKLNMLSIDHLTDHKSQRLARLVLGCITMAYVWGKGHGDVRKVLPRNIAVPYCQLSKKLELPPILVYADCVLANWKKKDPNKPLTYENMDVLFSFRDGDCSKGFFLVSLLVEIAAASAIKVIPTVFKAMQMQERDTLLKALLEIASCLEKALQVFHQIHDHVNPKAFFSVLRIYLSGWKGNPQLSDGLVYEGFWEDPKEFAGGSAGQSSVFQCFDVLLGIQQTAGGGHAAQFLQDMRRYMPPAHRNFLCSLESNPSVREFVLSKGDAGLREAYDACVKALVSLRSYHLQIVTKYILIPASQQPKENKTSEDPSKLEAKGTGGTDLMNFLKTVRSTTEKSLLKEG

[3] = biological target: T1, Indoleamine 2,3-dioxygenase 1; assay: Inhibition of IDO1 in IFN-gamma-induced human HeLa cells assessed as reduction in N-formylkynurenine formation using L-tryptophan as substrate preincubated for 24 hrs followed by substrate addition and measured after 30 mins by SpectraMax microplate reader analysis; type: cell-based
[4] = biological target: T2, Indoleamine 2,3-dioxygenase 2 (Homo sapiens) (UniProt Q6ZQW0); assay: Inhibition of human recombinant IDO2 assessed as reduction in N-formylkynurenine formation using L-tryptophan as substrate at 1 uM preincubated for 30 mins followed by substrate addition and measured after 20 mins by SpectraMax microplate reader analysis; conditions: time 50.0 min
T2 sequence (whole entry): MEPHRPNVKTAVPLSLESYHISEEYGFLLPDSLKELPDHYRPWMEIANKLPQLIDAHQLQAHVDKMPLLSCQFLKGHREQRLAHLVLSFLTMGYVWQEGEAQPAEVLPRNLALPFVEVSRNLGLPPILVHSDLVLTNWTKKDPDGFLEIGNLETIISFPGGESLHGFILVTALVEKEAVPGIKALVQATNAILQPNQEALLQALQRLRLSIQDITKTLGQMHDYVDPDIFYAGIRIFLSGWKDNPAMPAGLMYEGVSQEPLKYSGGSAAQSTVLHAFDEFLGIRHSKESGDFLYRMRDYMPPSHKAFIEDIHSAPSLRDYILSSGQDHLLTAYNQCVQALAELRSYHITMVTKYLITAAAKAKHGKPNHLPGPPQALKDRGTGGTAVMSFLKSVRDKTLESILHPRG

[5] = biological target: Tryptophan 2,3-dioxygenase (Homo sapiens) (UniProt P48775); assay: Inhibition of human recombinant TDO assessed as reduction in N-formylkynurenine formation using L-tryptophan as substrate at 1 uM preincubated for 30 mins followed by substrate addition and measured after 20 mins by SpectraMax microplate reader analysis; conditions: time 50.0 min
Tryptophan 2,3-dioxygenase (Homo sapiens), sequence (P48775 whole entry, looked up): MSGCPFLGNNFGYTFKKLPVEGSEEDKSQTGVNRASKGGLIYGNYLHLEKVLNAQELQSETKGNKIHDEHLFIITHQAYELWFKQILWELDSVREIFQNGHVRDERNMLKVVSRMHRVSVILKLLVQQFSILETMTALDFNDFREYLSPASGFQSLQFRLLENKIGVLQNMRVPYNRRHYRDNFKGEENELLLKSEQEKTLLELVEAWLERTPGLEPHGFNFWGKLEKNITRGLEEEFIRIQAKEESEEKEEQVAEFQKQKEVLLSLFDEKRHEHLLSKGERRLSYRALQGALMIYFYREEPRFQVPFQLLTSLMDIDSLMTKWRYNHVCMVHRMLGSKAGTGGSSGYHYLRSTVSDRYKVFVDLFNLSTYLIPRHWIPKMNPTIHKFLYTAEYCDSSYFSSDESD

[6] = Apparent permeability of the compound across apical to basolateral side in dog MDCK-II cells measured for 2 hrs by LC-MS/MS analysis; type: ADME, cell-based, Canis lupus familiaris
[7] = Apparent permeability of the compound across basolateral to apical side in dog MDCKII cells measured for 2 hrs by LC-MS/MS analysis; type: ADME, cell-based, Canis lupus familiaris, MDCK-II; conditions: MDCK
[8] = AUC (0 to t) in Sprague-Dawley rat at 25 mg/kg, po by LC-MS/MS analysis; type: ADME, organism-based; parameters: dose 25 mg/kg, route po; conditions: in vivo
[9] = AUC (0 to infinity) in Sprague-Dawley rat at 25 mg/kg, po by LC-MS/MS analysis; type: ADME, organism-based; parameters: dose 25 mg/kg, route po; conditions: in vivo
[10] = Tmax in Sprague-Dawley rat at 25 mg/kg, po by LC-MS/MS analysis; type: ADME, organism-based; conditions: in vivo
[11] = Cmax in Sprague-Dawley rat at 25 mg/kg, po by LC-MS/MS analysis; type: ADME, organism-based; parameters: dose 25 mg/kg, route po; conditions: in vivo
[12] = Half life in Sprague-Dawley rat at 25 mg/kg, po by LC-MS/MS analysis; type: ADME, organism-based; conditions: in vivo
[13] = Oral bioavailability in Sprague-Dawley rat at 25 mg/kg by LC-MS/MS analysis; type: ADME, organism-based; conditions: in vivo
[14] = AUC (0 to t) in Sprague-Dawley rat at 5 mg/kg, iv by LC-MS/MS analysis; type: ADME, organism-based; parameters: dose 5 mg/kg, route iv; conditions: in vivo
[15] = AUC (0 to infinity) in Sprague-Dawley rat at 5 mg/kg, iv by LC-MS/MS analysis; type: ADME, organism-based; parameters: dose 5 mg/kg, route iv; conditions: in vivo
[16] = Tmax in Sprague-Dawley rat at 5 mg/kg, iv by LC-MS/MS analysis; type: ADME, organism-based; conditions: in vivo
[17] = Cmax in Sprague-Dawley rat at 5 mg/kg, iv by LC-MS/MS analysis; type: ADME, organism-based; parameters: dose 5 mg/kg, route iv; conditions: in vivo
[18] = Half life in Sprague-Dawley rat at 5 mg/kg, iv by LC-MS/MS analysis; type: ADME, organism-based; conditions: in vivo
[19] = Volume of distribution in Sprague-Dawley rat at 5 mg/kg, iv by LC-MS/MS analysis; type: ADME, organism-based; conditions: in vivo
[20] = Plasma clearance in Sprague-Dawley rat at 5 mg/kg, iv by LC-MS/MS analysis; type: ADME, organism-based
[21] = Anti-tumor efficacy against mouse LLC cells implanted in C57BL/6 mouse assessed as tumor growth inhibition at 200 mg/kg, po bid treated for 21 days relative to control; type: functional; conditions: Lewis lung carcinoma, 504 h, time 21 day, read-out: TGI
[22] = Anti-tumor efficacy against mouse LLC cells implanted in C57BL/6 mouse assessed as tumor growth inhibition at 100 mg/kg, po bid treated for 21 days relative to control; type: functional; conditions: Lewis lung carcinoma, 504 h, time 21 day, read-out: TGI
[23] = Toxicity in C57BL/6 mouse implanted with mouse LLC cells assessed as mortality at 100 to 200 mg/kg, po bid treated for 21 days; type: organism-based, Lewis lung carcinoma; conditions: in vivo, 504 h, dose 100-200 mg/kg, time 21 day
[24] = Toxicity in C57BL/6 mouse implanted with mouse LLC cells assessed as pathological changes in heart at 100 to 200 mg/kg, po bid treated for 21 days by H and E staining assay; type: organism-based, Lewis lung carcinoma; conditions: in vivo, 504 h, dose 100-200 mg/kg, time 21 day
[25] = Toxicity in C57BL/6 mouse implanted with mouse LLC cells assessed as pathological changes in liver at 100 to 200 mg/kg, po bid treated for 21 days by H and E staining assay; type: organism-based, Lewis lung carcinoma; conditions: in vivo, 504 h, dose 100-200 mg/kg, time 21 day
[26] = Toxicity in C57BL/6 mouse implanted with mouse LLC cells assessed as pathological changes in spleen at 100 to 200 mg/kg, po bid treated for 21 days by H and E staining assay; type: organism-based, Lewis lung carcinoma; conditions: in vivo, 504 h, dose 100-200 mg/kg, time 21 day
[27] = Toxicity in C57BL/6 mouse implanted with mouse LLC cells assessed as pathological changes in lung at 100 to 200 mg/kg, po bid treated for 21 days by H and E staining assay; type: organism-based, Lewis lung carcinoma; conditions: in vivo, 504 h, dose 100-200 mg/kg, time 21 day
[28] = Toxicity in C57BL/6 mouse implanted with mouse LLC cells assessed as pathological changes in kidney at 100 to 200 mg/kg, po bid treated for 21 days by H and E staining assay; type: organism-based, Lewis lung carcinoma; conditions: in vivo, 504 h, dose 100-200 mg/kg, time 21 day
[29] = Toxicity in C57BL/6 mouse implanted with mouse LLC cells assessed as liver function by measuring change in total protein level at 100 to 200 mg/kg, po bid treated for 21 days […]; type: organism-based, Lewis lung carcinoma; conditions: in vivo, 504 h, dose 100-200 mg/kg, time 21 day
[30] = Toxicity in C57BL/6 mouse implanted with mouse LLC cells assessed as liver function by measuring change in AST level at 100 to 200 mg/kg, po bid treated for 21 days […]; type: organism-based, Lewis lung carcinoma; conditions: in vivo, 504 h, dose 100-200 mg/kg, time 21 day
[31] = Toxicity in C57BL/6 mouse implanted with mouse LLC cells assessed as liver function by measuring change in ALT level at 100 to 200 mg/kg, po bid treated for 21 days […]; type: organism-based, Lewis lung carcinoma; conditions: in vivo, 504 h, dose 100-200 mg/kg, time 21 day
[32] = Toxicity in C57BL/6 mouse implanted with mouse LLC cells assessed as kidney function by measuring change in BUN level at 100 to 200 mg/kg, po bid treated for 21 days […]; type: organism-based, Lewis lung carcinoma; conditions: in vivo, 504 h, dose 100-200 mg/kg, time 21 day
HeLa = assay: cells; conditions: Homo sapiens, 24 h
HCT-116 = assay: cells; conditions: Homo sapiens, HCT-116, 24 h
CT26 = assay: cells; conditions: Mus musculus, CT26, 24 h
cells = conditions: Mus musculus, Lung cancer cell line, 24 h
in vitro = conditions: dog, MDCK

| Structure (SMILES) | inhibition [4] | inhibition [5] | Papp A→B at 2 h [6] [×10⁻⁶ cm/s] | Papp B→A at 2 h [7] [×10⁻⁶ cm/s] | AUC(0-t) [8] [ng·h/mL] | AUC(0-inf) [9] [ng·h/mL] | Tmax [10] [min] | half-life [12] [min] | bioavailability [13] [%] | AUC(0-t) [14] [ng·h/mL] | AUC(0-inf) [15] [ng·h/mL] | Tmax [16] [min] | Cmax [17] [ng/mL] | half-life [18] [min] | Vd [19] [L/kg] | clearance [20] [mL/min/kg] | inhibition in vivo at 100 mg/kg [22] [%] | IC50 (HeLa) [µM] | IC50 (HCT-116) [µM] | IC50 (CT26) [µM] | further results |
| --- | --- | --- | --- | --- | --- | --- | --- | --- | --- | --- | --- | --- | --- | --- | --- | --- | --- | --- | --- | --- | --- |
| CCNC(=O)Nc1nonc1/C(=N/O)Nc1ccc(F)c(Br)c1 | inactive | inactive | 38.6 | 22.6 | 2220 | 2250 | 60 | 78.6 | 16.8 | 2640 | 2690 | 1.98 | 10000 | 97.2 | 4.01 | 32.3 | 41.5 | 46.1 | 19.6 | 34.9 | Activity [1]: Non-Toxic; IC50 [2]: 0.0674 µM; IC50 [3]: 0.0176 µM; Cmax [11]: 1690 ng/mL; inhibition in vivo at 200 mg/kg [21]: 53.1%; Activity [23]: Non-Toxic; Activity [24]: Non-Toxic; Activity [25]: Non-Toxic; Activity [26]: Non-Toxic; Activity [27]: Non-Toxic; Activity [28]: Non-Toxic; Activity [29]: Non-Toxic; Activity [30]: Non-Toxic; Activity [31]: Non-Toxic; Activity [32]: Non-Toxic; IC50 (cells): > 50 µM; efflux ratio at 2 h (in vitro): 0.58 |
| NS(=O)(=O)NCCNc1nonc1/C(=N/O)Nc1ccc(F)c(Br)c1 [EPACADOSTAT] | inactive | inactive | – | – | – | – | – | – | – | – | – | – | – | – | – | – | 38.8 | 59.8 | 36.3 | 64.6 | IC50 (cells): > 50 µM |
| NS(=O)(=O)NCCNc1nonc1C(=NO)Nc1ccc(F)c(Br)c1 [EPACADOSTAT] | – | – | 3.12 | 7.36 | 472 | 530 | 18.6 | 133 | 12.4 | 836 | 856 | 1.98 | 2430 | 38.4 | 5.73 | 102 | – | – | – | – | – |
